How the values were obtained:
[1] = Penetration into cerebrospinal fluid; assay type: in vivo, rats; conditions: all measurable time points, single dose; below limit of detection
[2] = Single-dose administration to primates (SC, IM, IV), plasma pharmacokinetics; assay type: in vivo, cynomolgus monkeys; conditions: for bioavailability / half-life / AUC(0-inf) / Cmax / Tmax / AUC(0-t): in vivo; for bioavailability: read-out: FR (%) bioavailability relative to intravenous administration; for half-life: read-out: t½,terminal (converted); for AUC(0-t): read-out: AUC(0-24)
Procedure: A washout period of at least three days separated each dosing day. […] The actual milligram amount of test article was calculated using the peptide content that was determined for the batch administered.
Endpoints for analysis included cageside observations, physical examinations and body weight. For the IV phase of the study, blood samples were collected into heparinized tubes at the following time points: immediately after dosing, 0.25, 0.5, 1.5, 3, 6, 12, and 24 hours after dosing. For the IM and SC phases of the study blood samples were collected in heparinized tubes from each animal at the following time points: 0.5, 1, 2, 3, 6, 12, and 24 hours after dosing. Plasma samples were prepared within one hour of collection and flash frozen in liquid nitrogen. Samples analysis was performed using a PcAb ECLIA assay (Blackburn, G. et al., 1991, Clin. Chem. 37:1534-1539; Deaver, D., 1995, Nature 377:758).

[3] = Single-dose administration to rodents (CSI, SC, IV), plasma pharmacokinetics; assay type: in vivo, Sprague-Dawley albino rats; conditions: for bioavailability / AUC(0-t) / AUC(0-inf) / Cmax / half-life / Tmax: rat, in vivo; for bioavailability: read-out: FR (%) relative bioavailability; for half-life: read-out: t1/2, terminal (converted)
Procedure: T1249 was administered to Sprague-Dawley albino rats in a single dose administered by continuous subcutaneous infusion (SCI), subcutaneous (SC) injection or intravenous (IV) injection. Each treatment group consisted of nine rats per sex per group. […] One group received 50 mM carbonate-bicarbonate, pH 8.5, administered as a control. The peptides were given for 12 hours via a polyvinyl chloride/polyethylene catheter surgically implanted subcutaneously in the nape of the neck. […] The actual milligram amount of T1249 was calculated using the peptide content that was determined for the batch administrated.
Endpoints for analysis included cageside observations (twice daily for mortality and moribundity), clinical observations, clinical laboratory parameters, body weight and necropsy. Blood samples were obtained by a sparse sampling technique over a 12 hour time period from three rats per sex per group at each of the following times: 0.5, 1, 2, 4, 6, 8, […], and 12 hours after dose administration. Sample analysis was performed using a PcAb ECLIA assay (Blackburn, G. et al., 1991, Clin. Chem. 37:1534-1539; Deaver, D., 1995, Nature 377:758).

[4] = Plasma and lymphatic pharmacokinetic analysis after IV bolus; assay type: in vivo, rats; conditions: for clearance / AUC(0-inf) / Cmax / AUC(0-t) / half-life: rat, in vivo; for AUC(0-t): read-out: AUC(0-6h); for half-life: iv, IV bolus, read-out: t½, elimination (converted)
Procedure: For plasma and lymphatic pharmacokinetic analysis of T1249 in rats, T1249 was prepared as a sterile solution in bicarbonate buffer and administered as a single dose, bolus intravenous injection into the lateral tail vain at a dose of […]. Blood was collected from the animal from an in-dwelling jugular catheter. Samples were collected immediately after dosing and at 5, 15, and 30 minutes, and 1, 2, 4, and 6 hours after drug administration. For the analysis of lymphatic fluids, samples were taken immediately before dosing and every 20 minutes for the first six hours after dosing. Lymphatic fluid was collected from a catheter placed directly into the thoracic lymphatic duct as previously described (Kirkpatrick and Silver, 1970, The Journal of Surgical Research 10:147-158).

[5] = Rat pharmacokinetic studies, IV, fluorescence HPLC of plasma; assay type: in vivo, CD rats; conditions: IV, male CD rats
Procedure: 250-300 g male CD rats, double jugular catheter, obtained from Charles River Laboratories were used. Peptides were injected in one jugular catheter in a volume of 200 μl of peptide solution (approximately 3.75 mg/ml), dosing solution concentration was determined using the Edelhoch method, (Edelhoch, 1967, Biochemistry 6:1948-1954) method and adjusted based on animal weight such that each animal received a dose of 2.5 mg/kg). Approximately 250-300 μl of blood was removed at predetermined time intervals (0, 15, 30 min and 1, 2, 4, 6, and 8 hours) and added to EDTA capiject tubes. Plasma was removed from pelleted cells upon centrifugation and either frozen or immediately processed for fluorescence HPLC analysis.
100 μl of sample plasma was added to 900 μl of precipitation buffer (acetonitrile, 1.0% TFA, detergent) resulting in precipitation of the majority of plasma proteins. Following centrifugation at 10,000 rpm for 10 min, 400 μl of the supernatant was removed and added to 600 μl of HPLC grade water. Serial dilutions were performed as dictated by concentration of peptide present in each sample in dilution buffer comprised of 40% precipitation buffer and 60% HPLC water. In addition to sample dilutions, serial dilutions of dosing solution were performed in buffer as well as in plasma and used to generate a standard curve relating peak area to known concentration of peptide. This curve was then used to calculate concentration of peptide in plasma taking into account all dilutions performed and quantity injected onto column.

[6] = cynomolgus monkey, IM (0.8 mg/kg)
[7] = cynomolgus monkey, IV (0.8 mg/kg)
[8] = cynomolgus monkey, SC (0.4 mg/kg)
[9] = cynomolgus monkey, SC (0.8 mg/kg)
[10] = cynomolgus monkey, SC (1.6 mg/kg)

## CC[C@H](C)[C@H](NC(=O)[C@H](CCC(N)=O)NC(=O)[C@H](C)NC(=O)[C@H](CCC(N)=O)NC(=O)[C@H](CCC(=O)O)NC(=O)[C@H](CC(C)C)NC(=O)[C@H](CC(C)C)NC(=O)[C@H](C)NC(=O)[C@@H](NC(=O)[C@@H](NC(=O)[C@H](CCCCN)NC(=O)[C@H](CCC(N)=O)NC(=O)[C@H](CCC(=O)O)NC(=O)[C@H](Cc1c[nH]c2ccccc12)NC(=O)[C@H](CCC(=O)O)NC(=O)[C@H](CCC(N)=O)NC(=O)[C@H](Cc1c[nH]c2ccccc12)NC(C)=O)[C@@H](C)CC)[C@@H](C)O)C(=O)N[C@@H](CCC(N)=O)C(=O)N[C@@H](CCC(N)=O)C(=O)N[C@@H](CCC(=O)O)C(=O)N[C@@H](CCCCN)C(=O)N[C@@H](CC(N)=O)C(=O)N[C@@H](CCC(=O)O)C(=O)N[C@@H](Cc1ccc(O)cc1)C(=O)N[C@@H](CCC(=O)O)C(=O)N[C@@H](CC(C)C)C(=O)N[C@@H](CCC(N)=O)C(=O)N[C@@H](CCCCN)C(=O)N[C@@H](CC(C)C)C(=O)N[C@@H](CC(=O)O)C(=O)N[C@@H](CCCCN)C(=O)N[C@@H](Cc1c[nH]c2ccccc12)C(=O)N[C@@H](C)C(=O)N[C@@H](CO)C(=O)N[C@@H](CC(C)C)C(=O)N[C@@H](Cc1c[nH]c2ccccc12)C(=O)N[C@@H](CCC(=O)O)C(=O)N[C@@H](Cc1c[nH]c2ccccc12)C(=O)N[C@@H](Cc1ccccc1)C(N)=O [T1249]
[1]
  concentration in cerebrospinal fluid (CSF): < 2.0 ng T1249/ml CSF
[2]; IM (0.8 mg/kg)
  t½,terminal: 5.57 h
[2]; IV (0.8 mg/kg), 0.8 mg/kg
  t½,terminal: 5.35 h
[2]; SC (0.8 mg/kg), 0.8 mg/kg
  t½,terminal: 4.83 h
[2]; SC administration, 0.4-1.6 mg/kg
  linearity of pharmacokinetics: linear pharmacokinetics
[2]; both sexes, cynomolgus monkey, plasma, 24 hours after SC and IV administration, read-out: quantifiable plasma levels at 24 hours
  level at 24 h: > 500 ng/mL
[2]; cynomolgus monkey, 0.8 mg/kg, IM (0.8 mg/kg)
  bioavailability: ~64%
[2]; cynomolgus monkey, 0.8 mg/kg, SC (0.8 mg/kg)
  bioavailability: ~92%
[2]; cynomolgus monkey, im, 0.8 mg/kg, IM (0.8 mg/kg)
  half-life: 5.6 h
[2]; cynomolgus monkey, iv, 0.8 mg/kg, IV (0.8 mg/kg)
  half-life: 5.4 h
[2]; cynomolgus monkey, sc, 0.4 mg/kg, SC (0.4 mg/kg)
  half-life: 6.23 h
[2]; cynomolgus monkey, sc, 0.8 mg/kg, SC (0.8 mg/kg)
  half-life: 4.8 h
[2]; cynomolgus monkey, sc, 1.6 mg/kg, SC (1.6 mg/kg)
  half-life: 5.55 h
[2]; [6]
  AUC(0-inf): 59500 ng·h/mL
  Cmax: 6370 ng/mL
  Tmax: 2.32 h
  AUC(0-t): 56400 ng·h/mL
[2]; [7]
  AUC(0-inf): 92500 ng·h/mL
  Cmax: 26700 ng/mL
  AUC(0-t): 87400 ng·h/mL
[2]; [8]
  AUC(0-inf): 40900 ng·h/mL
  Cmax: 3170 ng/mL
  Tmax: 3.97 h
  AUC(0-t): 37500 ng·h/mL
[2]; [9]
  AUC(0-inf): 85300 ng·h/mL
  Cmax: 6850 ng/mL
  Tmax: 4.58 h
  AUC(0-t): 8120 ng·h/mL
[2]; [10]
  AUC(0-inf): 181000 ng·h/mL
  Cmax: 13300 ng/mL
  Tmax: 4.72 h
  AUC(0-t): 168000 ng·h/mL
[3]; CSI
  time to steady-state plasma peptide concentrations: approximately four hours
[3]; CSI, 0.5 to 6.5 mg/kg
  dose proportionality of Cpss and AUC: linear pharmacokinetics
[3]; SC injection
  dose dependence of exposure: not dose-dependent
[3]; all dose groups
  changes in body weight, physical observations, hematology and clinical chemistry parameters or macroscopic pathology: no changes
[3]; bolus IV injection
  dose dependence of pharmacokinetics: linear dose-dependent pharmacokinetics
[3]; SC 1.2 mg/kg relative to IV 1.5 mg/kg
  bioavailability: 73%
[3]; SC 15 mg/kg relative to IV 5 mg/kg
  bioavailability: 30%
[3]; CSI, 0.5 mg/kg
  AUC(0-t): 7990 ng·h/mL
[3]; CSI, 2.0 mg/kg
  AUC(0-t): 25900 ng·h/mL
[3]; CSI, 6.5 mg/kg
  AUC(0-t): 120000 ng·h/mL
[3]; IV 1.5 mg/kg
  AUC(0-inf): 47100 ng·h/mL
  AUC(0-t): 45600 ng·h/mL
  Cmax: 15700 ng/mL
  half-life: 2.46 h
[3]; IV 5.0 mg/kg
  AUC(0-inf): 120000 ng·h/mL
  AUC(0-t): 118000 ng·h/mL
  Cmax: 46300 ng/mL
  half-life: 1.86 h
[3]; SC 1.2 mg/kg
  AUC(0-inf): 27600 ng·h/mL
  AUC(0-t): 27000 ng·h/mL
  Cmax: 6370 ng/mL
  Tmax: 1.09 h
  half-life: 2.02 h
[3]; SC 15 mg/kg
  AUC(0-inf): 110000 ng·h/mL
  AUC(0-t): 107000 ng·h/mL
  Cmax: 21500 ng/mL
  Tmax: 1.88 h
  half-life: 2 h
[4]; after IV administration
  time to equilibration of lymphatic system with the plasma reservoir: within approximately one hour
[4]; Lymph
  clearance: 0.192 mL/min
  half-life: 1.3 ± 0.27 h
[4]; Lymph, averages exclude Rat #1
  AUC(0-inf): 449000 ng·h/mL
  Cmax: 155000 ng/mL
  AUC(0-t): 411000 ng·h/mL
[4]; Lymph, averages include Rat #1
  AUC(0-inf): 390000 ng·h/mL
  Cmax: 133000 ng/mL
  AUC(0-t): 348000 ng·h/mL
[4]; Plasma
  AUC(0-inf): 598000 ng·h/mL
  Cmax: 291000 ng/mL
  clearance: 0.13 mL/min
  AUC(0-t): 506000 ng·h/mL
  half-life: 2.6 ± 0.41 h
[5]
  beta-phase half-life relative to T20: nearly three times greater than T20
  total AUC relative to T20: nearly three times greater than T20

From US6656906B1, “Hybrid polypeptides with enhanced pharmacokinetic properties” (Trimeris, Inc., priority 1998, dated 2003)
